Values after ≈ are worked out from the molar mass of the structure shown. Active and inactive are the calls of the source. The rule behind the calls is not given here.
How the values were obtained:
[1] = tested on: Human immunodeficiency virus 1; test: Antiviral activity against multidrug-resistant HIV1 RTMDR1 infected in H9 cells assessed as inhibition of viral replication by p24 antigen ELISA; format: functional, organism-based; conditions: Human immunodeficiency virus 1, RTMDR1, H9
H9 = test: Cytotoxicity against human H9 cells after 4 days by coulter counter; format: cell-based; conditions: Homo sapiens, H9, 96 h
[2] = Therapeutic index, ratio of IC50 for human H9 cells to EC50 for HIV 3B; format: cell-based; conditions: read-out: TI
[3] = tested on: Human immunodeficiency virus 1; test: Antiviral activity against HIV1 3B infected in H9 cells assessed as inhibition of viral replication by p24 antigen ELISA; format: functional, organism-based; conditions: Human immunodeficiency virus 1, 3B, H9; read-out: EC50
[4] = Therapeutic index, ratio of IC50 for human H9 cells to EC50 for multidrug-resistant HIV1 RTMDR1; format: cell-based; conditions: read-out: TI
[5] = Antitumor activity against rat Walker 256 cells allografted in rat at 2.5 mg/kg relative to control; format: functional
Tubulin = test: Inhibition of tubulin polymerization
HCT-8 = test: Cytotoxicity against human HCT8 cells after 3 days by sulforhodamine B assay; format: functional, cell-based; conditions: HCT-8, 72 h
[6] = Cytotoxicity against human KBVIN cells after 3 days by sulforhodamine B assay; format: functional, cell-based; conditions: 72 h
A549 = test: Cytotoxicity against human A549 cells after 3 days by sulforhodamine B assay; format: functional, cell-based; conditions: A549, 72 h
PC-3 = test: Cytotoxicity against human PC3 cells after 3 days by sulforhodamine B assay; format: functional, cell-based; conditions: PC-3, 72 h
A-431 = test: Cytotoxicity against human A431 cells after 3 days by sulforhodamine B assay; format: functional, cell-based; conditions: A-431, 72 h
KB [7] = test: Cytotoxicity against human KB cells after 3 days by sulforhodamine B assay; format: functional, cell-based; conditions: 72 h
1A9 = test: Cytotoxicity against human 1A9 cells after 3 days by sulforhodamine B assay; format: functional, cell-based; conditions: 1A9, 72 h
[8] = Therapeutic index, ratio of IC50 for human H9 cells to EC50 for HIV1; format: cell-based; conditions: read-out: TI
[9] = tested on: Human immunodeficiency virus 1; test: Antiviral activity against HIV1 infected in human H9 cells after 4 days by p24 antigen ELISA; format: functional, organism-based; conditions: Human immunodeficiency virus 1, H9, 96 h
KB [10] = test: Cytotoxicity against CPT-resistant human KB cells […] reduced level of topoisomerase; format: functional, cell-based
[11] = Inhibition of tubulin polymerization
[12] = Cytotoxicity against vincristine-resistant human KB/VCR cells overexpressing P-glycoprotein; format: functional, cell-based
[13] = Cytotoxicity against human KB-7d cells expressing multidrug-resistant protein; format: functional, cell-based; conditions: KB7D
KB [14] = test: Cytotoxicity against human KB cells; format: functional, cell-based
[15] = tested on: Human immunodeficiency virus 1; test: Anti-HIV-1 activity in human H9 cells; conditions: H9, 96 h
Hep-2 (human) = test: Cytotoxicity against human Hep-2 cells; conditions: for EC50: read-out: ED50 (the source's name)

CCCc1cc(=O)c2ccc3c(c2o1)[C@@H](OC(=O)C12CCC(C)(C(=O)O1)C2(C)C)[C@@H](OC(=O)C12CCC(C)(C(=O)O1)C2(C)C)C(C)(C)O3 (stereo not given in full)
EC50 [1]: 140 nM | IC50 (H9): > 37700 nM | selectivity ratio [2]: 1860 | EC50 [3]: 20 nM | selectivity ratio [4]: > 272

CC(C)c1cc(=O)c2ccc3c(c2o1)[C@@H](OC(=O)C12CCC(C)(C(=O)O1)C2(C)C)[C@@H](OC(=O)C12CCC(C)(C(=O)O1)C2(C)C)C(C)(C)O3 (stereo not given in full)
EC50 [1]: 140 nM | IC50 (H9): 15000 nM | selectivity ratio [2]: 483 | EC50 [3]: 70 nM | selectivity ratio [4]: > 111

C=C(C)C(=O)O[C@H]1C/C(C)=C\[C@@]2(OCC)C=C(C)[C@H](O2)[C@H]2OC(=O)C(=C)[C@@H]21 [PHANTOMOLIN]
T/C [5]: 378%

COc1cccc(-c2cc(=O)c3ccc(C)nc3[nH]2)c1
IC50 (Tubulin): 750 nM

CCOCc1cc(=O)c2ccc3c(c2o1)[C@@H](OC(=O)C12CCC(C)(C(=O)O1)C2(C)C)[C@@H](OC(=O)C12CCC(C)(C(=O)O1)C2(C)C)C(C)(C)O3 (stereo not given in full)
EC50 [1]: 370 nM | IC50 (H9): 12500 nM | selectivity ratio [2]: 151 | EC50 [3]: 100 nM | selectivity ratio [4]: 34

Cc1cc(=O)c2ccc3c(c2o1)[C@@H](OC(=O)C12CCC(C)(C(=O)O1)C2(C)C)[C@@H](OC(=O)C12CCC(C)(C(=O)O1)C2(C)C)C(C)(C)O3 (stereo not given in full)
EC50 [1]: 190 nM | IC50 (H9): 11800 nM | selectivity ratio [2]: 8600 | selectivity ratio [4]: 63

Cc1cnc2nc(-c3cccc4ccccc34)cc(O)c2c1
IC50 (Tubulin): 550 nM

Cc1cnc2[nH]c(-c3cccc(F)c3)cc(=O)c2c1
IC50 (Tubulin): 630 nM

Cc1cnc2[nH]c(-c3cccc(Cl)c3)cc(=O)c2c1
IC50 (Tubulin): 720 nM

C[C@@H]1O[C@@H](O[C@H]2CC[C@]3(C=O)[C@H]4CC[C@]5(C)[C@@H](c6ccc(=O)oc6)CC[C@]5(O)[C@@H]4CC[C@]3(O)C2)[C@@H](O)[C@H](O)[C@@H]1O [KALANCHOSIDE B]
IC50 (HCT-8): 0.015 µg/mL (≈ 0.0267 µM) | IC50 [6]: 0.013 µg/mL (≈ 0.0231 µM) | IC50 (A549): 0.001 µg/mL (≈ 0.00178 µM) | IC50 (PC-3): 0.01 µg/mL (≈ 0.0178 µM) | IC50 (A-431): 0.022 µg/mL (≈ 0.0391 µM) | IC50 (KB [7]): 0.005 µg/mL (≈ 0.00889 µM) | IC50 (1A9): 0.007 µg/mL (≈ 0.0124 µM)

Cc1ccc2c(=O)cc(-c3cccc(F)c3)[nH]c2n1
IC50 (Tubulin): 530 nM

C=C(C)[C@@H]1CC[C@]2(C(=O)O)CC[C@]3(C)[C@H](CC[C@@H]4[C@@]5(C)CC[C@H](OC(=O)C(C)(C)CC(=O)O)C(C)(C)[C@@H]5CC[C@]43C)[C@@H]12
selectivity ratio [8]: 6.7 | IC50 [9]: 15900 nM

C=C1C(=O)O[C@@H]2C[C@@H](C)[C@@H]3[C@@H]4CC(=O)[C@@]3(C[C@H]12)[C@@]1(C4)C(=O)O[C@@H]2C[C@@H](C)[C@@H]3C=CC(=O)[C@@]3(C)[C@@H](O)[C@@H]21 [MICROLENIN]
T/C [5]: 173%

C=C1C(=O)O[C@H]2[C@H]1[C@@H](OC(=O)/C(C)=C/C)C/C(C)=C/C(=O)/C=C(/C)[C@@H]2O [MOLEPHANTININ]
T/C [5]: 397%

COc1ccc2c(c1)C(O)CCc1cc(OC)c(OC)c(OC)c1-2 (stereo not given)
EC50 (KB [10]): 0.022 µg/mL (≈ 0.0666 µM) | IC50 [11]: 2000 nM | EC50 [12]: 0.013 µg/mL (≈ 0.0393 µM) | EC50 [13]: 0.013 µg/mL (≈ 0.0393 µM) | EC50 (KB [14]): 0.02 µg/mL (≈ 0.0605 µM)

C=C(C)[C@@H]1CC[C@]2(C(=O)O)CC[C@]3(C)[C@H](CC[C@@H]4[C@@]5(C)CC[C@H](OC(=O)/C=C/C)C(C)(C)[C@@H]5CC[C@]43C)[C@@H]12
EC50 [15]: 19000 nM | IC50 [9]: 48000 nM

C=C(C)[C@@H]1CC[C@]2(C(=O)O)CC[C@]3(C)[C@H](CC[C@@H]4[C@@]5(C)CC[C@H](OC(=O)CC(C)(C)C(=O)O)C(C)(C)[C@@H]5CC[C@]43C)[C@@H]12 [BEVIRIMAT]
selectivity ratio [8]: 20000 | EC50 [15]: 0.35 nM

C=C1C(=O)O[C@@H]2C[C@@H](C)[C@@H]3CCC(=O)[C@@]3(C)[C@@H](O)[C@H]12
EC50 (Hep-2 (human)): 3.84 µg/mL (≈ 14.5 µM)

C=C(C)[C@@H]1CC[C@]2(C(=O)O)CC[C@]3(C)[C@H](CC[C@@H]4[C@@]5(C)CC[C@H](OC(=O)CCC(=O)O)C(C)(C)[C@@H]5CC[C@]43C)[C@@H]12
selectivity ratio [8]: 4 | EC50 [15]: 4000 nM | IC50 [9]: 16000 nM

C[C@@H]1C[C@H]2OC(=O)[C@@H](C)[C@H]2[C@H](O)[C@]2(C)C(=O)C=C[C@@H]12
EC50 (Hep-2 (human)): 0.8 µg/mL (≈ 3.03 µM)

C=C(C)[C@@H]1CC[C@]2(C(=O)O)CC[C@]3(C)[C@H](CC[C@@H]4[C@@]5(C)CC[C@H](OC(=O)COCC(=O)O)C(C)(C)[C@@H]5CC[C@]43C)[C@@H]12
selectivity ratio [8]: 1170 | IC50 [9]: 11700 nM

C[C@@H]1C[C@H]2OC(=O)[C@@H](C)[C@H]2[C@H](O)[C@]2(C)C(=O)CC[C@@H]12
ED50 (Hep-2 (human)): inactive

CC1(C)Oc2ccc3c(=O)cc(-c4ccccc4)oc3c2[C@@H](OC(=O)C23CCC(C)(C(=O)O2)C3(C)C)[C@H]1OC(=O)C12CCC(C)(C(=O)O1)C2(C)C (stereo not given in full)
EC50 [1]: 170 nM | IC50 (H9): 12200 nM | selectivity ratio [2]: 277 | EC50 [3]: 130 nM | selectivity ratio [4]: 71

C[C@H]1O[C@H](O[C@H]2CC[C@]3(C=O)[C@H]4CC[C@]5(C)[C@@H](c6ccc(=O)oc6)CC[C@]5(O)[C@@H]4CC[C@]3(O)C2)[C@H](O)[C@@H](O)[C@@H]1O [KALANCHOSIDE A]
IC50 (HCT-8): 0.006 µg/mL (≈ 0.0107 µM) | IC50 [6]: 0.003 µg/mL (≈ 0.00533 µM) | IC50 (A549): 0.0005 µg/mL (≈ 0.000889 µM) | IC50 (PC-3): 0.002 µg/mL (≈ 0.00355 µM) | IC50 (A-431): 0.007 µg/mL (≈ 0.0124 µM) | IC50 (KB [7]): 0.003 µg/mL (≈ 0.00533 µM) | IC50 (1A9): 0.0008 µg/mL (≈ 0.00142 µM)

C=C(C)[C@@H]1CC[C@]2(C(=O)O)CC[C@]3(C)[C@H](CC[C@@H]4[C@@]5(C)CC[C@H](OC(=O)CC(C)(C)CC(=O)O)C(C)(C)[C@@H]5CC[C@]43C)[C@@H]12
selectivity ratio [8]: 2000 | EC50 [15]: 3 nM | IC50 [9]: 4500 nM

C=C(C)[C@@H]1CC[C@]2(C(=O)O)CC[C@]3(C)[C@H](CC[C@@H]4[C@@]5(C)CC[C@H](OC(=O)CCCC(=O)O)C(C)(C)[C@@H]5CC[C@]43C)[C@@H]12
selectivity ratio [8]: 292 | EC50 [15]: 44 nM | IC50 [9]: 12800 nM

COc1ccc2c(c1)C(=O)CCc1cc(OC)c(OC)c(OC)c1-2
EC50 (KB [10]): 0.052 µg/mL (≈ 0.158 µM) | IC50 [11]: 1000 nM | EC50 [12]: > 0.063 µg/mL | EC50 [13]: 0.025 µg/mL (≈ 0.0761 µM) | EC50 (KB [14]): 0.057 µg/mL (≈ 0.174 µM)

CCc1cc(=O)c2ccc3c(c2o1)[C@@H](OC(=O)C12CCC(C)(C(=O)O1)C2(C)C)[C@@H](OC(=O)C12CCC(C)(C(=O)O1)C2(C)C)C(C)(C)O3 (stereo not given in full)
EC50 [1]: 60 nM | IC50 (H9): 37200 nM | selectivity ratio [2]: 116000 | selectivity ratio [4]: 718
